Biological target: T1, 5-lypoxygenase (Mus musculus, UniProt P48999)
T1 construct: The supernatant was used as the 5-lypoxygenase enzyme solution; endogenous in cells; host or cells: mouse mastocytoma P815 cells (supernatant of sonicated cells)
T1 sequence (P48999 1-674): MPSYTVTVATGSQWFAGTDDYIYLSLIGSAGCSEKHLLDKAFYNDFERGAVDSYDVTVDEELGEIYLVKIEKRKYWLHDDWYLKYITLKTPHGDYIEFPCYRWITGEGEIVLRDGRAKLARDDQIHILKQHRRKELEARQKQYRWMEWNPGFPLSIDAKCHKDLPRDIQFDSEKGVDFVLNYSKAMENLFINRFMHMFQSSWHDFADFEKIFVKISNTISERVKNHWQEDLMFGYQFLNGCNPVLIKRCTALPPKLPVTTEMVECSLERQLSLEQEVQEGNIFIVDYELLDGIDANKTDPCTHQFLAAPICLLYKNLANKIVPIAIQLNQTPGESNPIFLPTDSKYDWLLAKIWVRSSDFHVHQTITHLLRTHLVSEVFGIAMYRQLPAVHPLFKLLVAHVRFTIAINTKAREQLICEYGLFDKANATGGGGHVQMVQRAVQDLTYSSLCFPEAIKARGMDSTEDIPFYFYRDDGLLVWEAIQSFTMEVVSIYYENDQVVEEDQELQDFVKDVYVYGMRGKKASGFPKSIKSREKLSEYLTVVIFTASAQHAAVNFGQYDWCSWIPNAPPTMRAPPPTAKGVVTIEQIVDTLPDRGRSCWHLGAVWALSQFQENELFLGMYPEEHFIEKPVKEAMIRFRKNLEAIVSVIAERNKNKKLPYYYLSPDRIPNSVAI
Assay: 5-Lypoxygenase-inhibiting activity (formation of 5-HETE and LTB4 from radiolabelled arachidonic acid, supernatant of sonicated mouse mastocytoma P815 cells)
Type: biochemical
Details: inhibition of formation of 5-HETE and LTB4; 37° C., 5 min; pH 7.4 phosphate buffer; P815 cell supernatant; indomethacine present; read-out: 50% inhibitory concentration IC50
Procedure: Mouse mastocytoma cells, strain P815 were diluted in a medium containing 90% of the Eagle basal medium (manufactured by Gibco Laboratories) to a cencentration of 5×10^4 cells/ml. The diluted liquor was subjected to shake culture in air at 37° C. for 48 hours. The culture liquor was cooled with ice and centrifuged to collect the cells. The cells were re-suspended in a phosphate buffer solution at pH 7.4 to a concentration of 2×10^7 cells/ml. The suspension was treated in an ultrasonic cell fragmenting machine and then centrifuged at […] for 10 min. The supernatant was used as the 5-lypoxygenase enzyme solution. To a test tube in which 20 μl of radiolabelled arachidonic acid (10 μ curies/ml), indomethacine ([…]) and an amide derivative of the invention to be tested were placed 0.45 ml of phosphate buffer solution, 0.45 ml of the above-prepared enzyme solution and 0.1 ml of 8 mM CaCl2 (calcium chloride) solution. The mixture was reacted at 37° C. for 5 min. […] Determination of the inhibitory activity was made by collecting the portion corresponding to 5-HBTE (5-(s)-hydroxy-6,8,11,14-eicosatetraenic acid) and LTB4 (leucotriene B4), which were 5-lypoxygenase products as detected with a radio-thin layer scanner (Dunnschicht-scanner II LB 2723 manufactured by Berthold), and measuring the radioactivity by means of a scintillation counter. […]

Structure (SMILES) | IC50 [nM]
COc1cc(/C=C/C(=O)Nc2c(Br)cc(Br)cc2CN(C)C2CCCCC2)ccc1O [Example 1, N-cyclohexyl-N-methyl-(2-(3-(3-methoxy-4-hydroxyphenyl)-2-propenoylamino)-3,5-dibromobenzyl)amine] | 4000
COc1cc(/C=C/C=C/C(=O)Nc2c(Br)cc(Br)cc2CN(C)C2CCCCC2)ccc1O [Example 2, N-cyclohexyl-N-methyl-(2-(5-(3-methoxy-4-hydroxyphenyl)2,4-pentadienoylamino)-3,5-dibromobenzyl)amine] | 300

Source: patent US4816486A, “Amide derivatives and 5-lypoxygenase inhibitors containing the same” (Terumo Corporation, priority 1985, dated 1989)
